{
  "source": "patent US11597724B2",
  "about": "“Herbicidally active 3-phenylisoxazoline-5-carboxamides of tetrahydro and dihydrofuran carboxylic acids and esters” (Bayer Aktiengesellschaft, priority 2017, dated 2023)",
  "format_in_all_cases": "in vivo",
  "key": {"[1]": {"system": "Echinochloa crus-galli", "assay": "Pre-emergence herbicidal activity against ECHCG", "conditions": "dosage 80 g/ha, scored visually after about 3 weeks vs untreated controls (100% = plants have died, 0% = like control plants); for pest or weed control at 80 g/ha: Echinochloa crus-galli, 504 h", "description": "(§1) 1. Pre-Emergence Herbicidal Action and Crop Plant Compatibility Seeds of monocotyledonous and dicotyledonous weed plants and crop plants are placed in plastic or wood fiber pots and covered with soil. The compounds of the invention, formulated in the form of wettable powders (WP) or as emulsion concentrates (EC), are then applied onto the surface of the covering soil as aqueous suspension or emulsion with addition of 0.5% additive at a water application rate of 600 l/ha (converted). After the treatment, the pots are placed in a greenhouse and kept under good growth conditions for the trial plants. After about 3 weeks, the effect of the preparations is scored visually in comparison with untreated controls as percentages. For example, 100% activity=the plants have died, 0% activity=like control plants. ECHCG: Echinochloa crus-galli HORMU: Hordeum murinum"}, "[2]": {"assay": "Pre-emergence treatment, summary over harmful plants", "conditions": "504 h, application rate of 0.08 kg of active substance or less per hectare, read-out: herbicidal action, pre-emergence treatment (very good activity)", "description": "1. Pre-Emergence Herbicidal Action and Crop Plant Compatibility\nas §1, with “Seeds” for “1. Pre-Emergence Herbicidal Action and Crop Plant Compatibility Seeds”, “plants.” for “plants. ECHCG: Echinochloa crus-galli HORMU: Hordeum murinum”\nAs shown by the results, compounds according to the invention such as, for example, the compounds No. I-21 and other compounds from the tables (for example I-10, I-26, I-09, I-30, I-28, I-29, I-27, I-01, I-06, I-34, I-19, I-11, I-36, I-37, I-38, I-41, I-42, I-43, I-44, I-46, I-49) have, when used for pre-emergence treatment, very good activity (80% to 100% herbicidal action) against harmful plants such as Abutilon theophrasti, Alopecurus myosuroides, Amaranthus retroflexus, Avena fatua, Echinochloa crus-galli, Hordeum murinum, Lolium rigidum, Pharbitis purpurea, Polygonum convolvulus, Setaria viridis, Stellaria media, Veronica persica and Viola tricolor at an application rate of 0.08 kg of active substance or less per hectare."}, "[3]": {"system": "Abutilon theophrasti", "assay": "Pre-emergence herbicidal activity against ABUTH", "conditions": "dosage 80 g/ha", "description": "as §1, with “ABUTH: Abutilon theophrasti ALOMY: Alopecurus myosuroides” for “ECHCG: Echinochloa crus-galli HORMU: Hordeum murinum”"}, "[4]": {"system": "Hordeum murinum", "assay": "Pre-emergence herbicidal activity against HORMU", "conditions": "dosage 80 g/ha; for pest or weed control at 80 g/ha: Hordeum murinum, 504 h", "description": "as §1"}, "[5]": {"system": "Viola tricolor", "assay": "Pre-emergence herbicidal activity against VIOTR", "conditions": "dosage 80 g/ha", "description": "as §1, with “VIOTR: Viola tricolor” for “ECHCG: Echinochloa crus-galli HORMU: Hordeum murinum”"}, "[6]": {"system": "Lolium rigidum", "assay": "Pre-emergence herbicidal activity against LOLRI", "conditions": "dosage 80 g/ha; for pest or weed control at 80 g/ha: Lolium rigidum, 504 h", "description": "as §1, with “LOLRI: Lolium rigidum PHBPU: Pharbitis purpurea” for “ECHCG: Echinochloa crus-galli HORMU: Hordeum murinum”"}},
  "data": [
    {"smiles": "COC(=O)[C@H]1C[C@@H](NC(=O)[C@@]2(C)CC(c3cc(F)cc(F)c3)=NO2)CO1", "note": "(mixture of isomers) [I-09, methyl cis-4-[[(5R)-3-(3,5-difluorophenyl)-5-methyl-4H-isoxazole-5-carbonyl]amino]tetrahydrofuran-2-carboxylate]", "values": [
      {"measurement": "pest or weed control at 80 g/ha", "setting": "[1]", "value": 90, "unit": "%"},
      {"measurement": "pest or weed control at 80 g/ha", "setting": "[2]", "value": "80 to 100", "unit": "%"},
      {"measurement": "Pre-emergence herbicidal activity against ABUTH in %", "setting": "[3]", "value": 100, "unit": "%"}
    ]},
    {"smiles": "C=C[C@]1(C(=O)N[C@H]2CO[C@@H](C(=O)OC)C2)CC(c2cc(F)cc(F)c2)=NO1", "note": "(mixture of isomers) [I-10, methyl cis-4-[[(5S)-3-(3,5-difluorophenyl)-5-vinyl-4H-isoxazole-5-carbonyl]amino]tetrahydrofuran-2-carboxylate]", "values": [
      {"measurement": "pest or weed control at 80 g/ha", "setting": "[4]", "value": 100, "unit": "%"},
      {"measurement": "pest or weed control at 80 g/ha", "setting": "[1]", "value": 100, "unit": "%"},
      {"measurement": "Pre-emergence herbicidal activity against VIOTR in %", "setting": "[5]", "value": 100, "unit": "%"},
      {"measurement": "pest or weed control at 80 g/ha", "setting": "[2]", "value": "80 to 100", "unit": "%"},
      {"measurement": "Pre-emergence herbicidal activity against ABUTH in %", "setting": "[3]", "value": 100, "unit": "%"},
      {"measurement": "pest or weed control at 80 g/ha", "setting": "[6]", "value": 100, "unit": "%"}
    ]},
    {"smiles": "C=C[C@]1(C(=O)N[C@H]2CO[C@@H](C(=O)OC(C)C)C2)CC(c2cc(F)cc(F)c2)=NO1", "note": "(mixture of isomers) [I-36, isopropyl cis-4-[[(5S)-3-(3,5-difluorophenyl)-5-vinyl-4H-isoxazole-5-carbonyl]amino]tetrahydrofuran-2-carboxylate]", "values": [
      {"measurement": "pest or weed control at 80 g/ha", "setting": "[4]", "value": 90, "unit": "%"},
      {"measurement": "pest or weed control at 80 g/ha", "setting": "[1]", "value": 100, "unit": "%"},
      {"measurement": "Pre-emergence herbicidal activity against VIOTR in %", "setting": "[5]", "value": 100, "unit": "%"},
      {"measurement": "pest or weed control at 80 g/ha", "setting": "[2]", "value": "80 to 100", "unit": "%"},
      {"measurement": "pest or weed control at 80 g/ha", "setting": "[6]", "value": 100, "unit": "%"}
    ]},
    {"smiles": "C=C[C@]1(C(=O)N[C@H]2CO[C@@H](C(=O)OCc3ccccc3)C2)CC(c2cc(F)cc(F)c2)=NO1", "note": "(mixture of isomers) [I-37, benzyl cis-4-[[(5S)-3-(3,5-difluorophenyl)-5-vinyl-4H-isoxazole-5-carbonyl]amino]tetrahydrofuran-2-carboxylate]", "values": [
      {"measurement": "pest or weed control at 80 g/ha", "setting": "[4]", "value": 100, "unit": "%"},
      {"measurement": "pest or weed control at 80 g/ha", "setting": "[1]", "value": 90, "unit": "%"},
      {"measurement": "Pre-emergence herbicidal activity against VIOTR in %", "setting": "[5]", "value": 100, "unit": "%"},
      {"measurement": "pest or weed control at 80 g/ha", "setting": "[2]", "value": "80 to 100", "unit": "%"},
      {"measurement": "pest or weed control at 80 g/ha", "setting": "[6]", "value": 100, "unit": "%"}
    ]},
    {"smiles": "C=C[C@]1(C(=O)N[C@H]2CO[C@@H](C(=O)OC(C)(C)C)C2)CC(c2cc(F)cc(F)c2)=NO1", "note": "(mixture of isomers) [I-38, tert-butyl cis-4-[[(5S)-3-(3,5-difluorophenyl)-5-vinyl-4H-isoxazole-5-carbonyl]amino]tetrahydrofuran-2-carboxylate]", "values": [
      {"measurement": "pest or weed control at 80 g/ha", "setting": "[4]", "value": 90, "unit": "%"},
      {"measurement": "pest or weed control at 80 g/ha", "setting": "[1]", "value": 100, "unit": "%"},
      {"measurement": "Pre-emergence herbicidal activity against VIOTR in %", "setting": "[5]", "value": 100, "unit": "%"},
      {"measurement": "pest or weed control at 80 g/ha", "setting": "[2]", "value": "80 to 100", "unit": "%"},
      {"measurement": "pest or weed control at 80 g/ha", "setting": "[6]", "value": 100, "unit": "%"}
    ]},
    {"smiles": "COC(=O)[C@H]1C[C@@H](NC(=O)C2(C)CC(c3cc(C)cc(Br)c3)=NO2)CO1", "note": "(relative stereo) [I-04, methyl cis-4-[[3-(3-bromo-5-methylphenyl)-5-methyl-4H-isoxazole-5-carbonyl]amino]tetrahydrofuran-2-carboxylate]", "values": [
      {"measurement": "Pre-emergence herbicidal activity against ABUTH in %", "setting": "[3]", "value": 100, "unit": "%"}
    ]},
    {"smiles": "COC(=O)[C@H]1C[C@@H](NC(=O)C2(C(F)(F)F)CC(c3cc(F)cc(F)c3)=NO2)CO1", "note": "(relative stereo) [I-06, methyl cis-4-[[3-(3,5-difluorophenyl)-5-(trifluoromethyl)-4H-isoxazole-5-carbonyl]amino]tetrahydrofuran-2-carboxylate]", "values": [
      {"measurement": "pest or weed control at 80 g/ha", "setting": "[1]", "value": 80, "unit": "%"},
      {"measurement": "Pre-emergence herbicidal activity against VIOTR in %", "setting": "[5]", "value": 80, "unit": "%"},
      {"measurement": "pest or weed control at 80 g/ha", "setting": "[2]", "value": "80 to 100", "unit": "%"},
      {"measurement": "Pre-emergence herbicidal activity against ABUTH in %", "setting": "[3]", "value": 100, "unit": "%"}
    ]},
    {"smiles": "COC(=O)[C@H]1C[C@@H](NC(=O)C2(OC)CC(c3cc(C)cc(Br)c3)=NO2)CO1", "note": "(relative stereo) [I-08, methyl cis-4-[[3-(3-bromo-5-methylphenyl)-5-methoxy-4H-isoxazole-5-carbonyl]amino]tetrahydrofuran-2-carboxylate]", "values": [
      {"measurement": "Pre-emergence herbicidal activity against ABUTH in %", "setting": "[3]", "value": 100, "unit": "%"}
    ]},
    {"smiles": "COC(=O)[C@H]1C[C@@H](NC(=O)C2(OC)CC(c3ccccc3)=NO2)CO1", "note": "(relative stereo) [I-14, methyl cis-4-[(5-methoxy-3-phenyl-4H-isoxazole-5-carbonyl)amino]tetrahydrofuran-2-carboxylate]", "values": [
      {"measurement": "Pre-emergence herbicidal activity against ABUTH in %", "setting": "[3]", "value": 100, "unit": "%"}
    ]},
    {"smiles": "C=C[C@]1(C(=O)N[C@H]2CO[C@@H](C(=O)OC)C2)CC(c2cc(F)cc(F)c2)=NO1", "note": "(single isomer, unassigned) [I-11]", "values": [
      {"measurement": "Pre-emergence herbicidal activity against HORMU in %", "setting": "[4]", "value": 100, "unit": "%"},
      {"measurement": "Pre-emergence herbicidal activity against ECHCG in %", "setting": "[1]", "value": 100, "unit": "%"},
      {"measurement": "Pre-emergence herbicidal activity against VIOTR in %", "setting": "[5]", "value": 100, "unit": "%"},
      {"measurement": "pest or weed control at 80 g/ha", "setting": "[2]", "value": "80 to 100", "unit": "%"},
      {"measurement": "Pre-emergence herbicidal activity against ABUTH in %", "setting": "[3]", "value": 80, "unit": "%"},
      {"measurement": "Pre-emergence herbicidal activity against LOLRI in %", "setting": "[6]", "value": 100, "unit": "%"}
    ]},
    {"smiles": "COC(=O)C1COCC1NC(=O)C1(OC)CC(c2cc(F)cc(F)c2)=NO1", "note": "(stereo not drawn) [I-27, methyl 4-[[3-(3,5-difluorophenyl)-5-methoxy-4H-isoxazole-5-carbonyl]amino]tetrahydrofuran-3-carboxylate]", "values": [
      {"measurement": "Pre-emergence herbicidal activity against VIOTR in %", "setting": "[5]", "value": 90, "unit": "%"},
      {"measurement": "pest or weed control at 80 g/ha", "setting": "[2]", "value": "80 to 100", "unit": "%"}
    ]}
  ]
}
